Assay results: patent publication US12083137B2, “Triazole bisphosphonate geranylgeranyl diphosphate synthase inhibitors” (BOARD OF REGENTS OF THE UNIVERSITY OF NEBRASKA, priority 2017, dated 2024)
Read-outs that look alike come from different tables or passages of the source.

Experiments:
[1] = target: Recombinant GGDPS (Homo sapiens (Human), UniProt O95749); assay: GGDPS enzyme assay; assay type: biochemical; details: for Selectivity for GGDPS to FDPS: ratio FDPS IC50 / GGDPS IC50
Experimental: (§1) FIG. 9 GGDPS and FDPS enzyme assay data for compounds 19, 20, and 21. Each assay was performed in three independent experiments (R1, R2, R3) and each compound was tested in duplicate at each concentration.
(§2) Each assay was performed in three independent experiments (R1, R2, R3) and each compound was tested in duplicate at each concentration.
GGDPS Enzyme assay (FIG. 9, 10, 11): Recombinant GGDPS was obtained from MyBioSource (San Diego, CA). Recombinant enzyme (20 nM GGDPS) was incubated with assay buffer (50 mM Tris-HCl, pH 7.7, 20 mM MgCl2, 5 mM TCEP, 5 μg/mL BSA) and test compounds for 10 minutes at room temperature. The reaction was initiated by the addition of 10 μM FPP and 10 μM [^14C]-IPP and was carried out at 37° C. for 30 minutes. The reaction was stopped by the addition of saturated NaCl. Radiolabeled GGPP was extracted with n-butanol and counted via liquid scintillation counting. CompuSyn software (ComboSyn, Inc.) was used to analyze the concentration response curves and determine the IC50 values.

[2] = system: RPMI-8226 cells; assay: Cellular protein geranylgeranylation: Rap1a immunoblot plus intracellular lambda light chain ELISA; assay type: cell-based, Human; details: 48 h; for Cellular LEC (lowest effective concentration): lowest concentration with visible unmodified Rap1a band and statistically significant increase in intracellular lambda light chain; for relative cellular activity (comparison in words): myeloma cells
Experimental: (§3) RPMI-8226 cells were incubated for 48 h in the presence or absence of lovastatin (Lov, 10 μM) or varying concentrations of the test compounds. Intracellular lambda light chain concentrations were determined via ELISA. Data are expressed as a percentage of control (mean±SD, n=3). The * denotes p<0.05 per unpaired two-tailed t-test.
The impact of substituents at the α-carbon of the compounds disclosed herein on cellular activity was assessed in myeloma cells. Impairment of cellular protein geranylgeranylation was determined via two methods: 1) ELISA for intracellular lambda light chain which is a marker for disruption of Rab GTPase geranyl-geranylation (FIGS. 1, 3, 5, 7) and 2) immunoblot analysis for unmodified Rap1a (a substrate of GGTase I) (FIGS. 2, 4, 6, 8). Lovastatin, an HMG-CoA reductase inhibitor, was included as a positive control. […] Next, the impact of the olefin stereochemistry on biological activity was determined.
Immunoblot analysis (FIG. 2, 4, 6, 8): Multiple myeloma cells were incubated (37° C. and 5% CO2) with test compounds for 48 hours in RPMI-1640 media containing 10% fetal bovine serum and penicillin-streptomycin. Whole cell lysate was obtained using RIPA buffer (0.15 M NaCl, 1% sodium deoxycholate, 0.1% SODS, 1% Triton (v/v) X-100, 0.05 M Tris HCl) containing protease and phosphatase inhibitors. Protein content was determined using the bicinchoninic acid (BCA) method (Pierce Chemical, Rockford, IL). Equivalent amounts of cell lysate were resolved by SODS-PAGE, transferred to polyvinylidene difluoride membrane, probed with the appropriate primary antibodies, and detected using HRP-linked secondary antibodies and Bio-Rad Clarity ECL Substrate Western blotting reagents per manufacturer's protocols.
(§4) Lambda light chain ELISA (FIG. 1, 3, 5, 7): Human lambda light chain kit (Bethyl Laboratories, Montgomery, TX) was used to quantify intracellular monoclonal protein levels of whole cell lysate. Lambda light chain levels were normalized to total protein levels (as determined by BCA).

[3] = target: FDPS (Homo sapiens (Human), UniProt P14324); assay: FDPS enzyme assay; assay type: biochemical
FDPS, sequence (P14324 whole entry, species assumed): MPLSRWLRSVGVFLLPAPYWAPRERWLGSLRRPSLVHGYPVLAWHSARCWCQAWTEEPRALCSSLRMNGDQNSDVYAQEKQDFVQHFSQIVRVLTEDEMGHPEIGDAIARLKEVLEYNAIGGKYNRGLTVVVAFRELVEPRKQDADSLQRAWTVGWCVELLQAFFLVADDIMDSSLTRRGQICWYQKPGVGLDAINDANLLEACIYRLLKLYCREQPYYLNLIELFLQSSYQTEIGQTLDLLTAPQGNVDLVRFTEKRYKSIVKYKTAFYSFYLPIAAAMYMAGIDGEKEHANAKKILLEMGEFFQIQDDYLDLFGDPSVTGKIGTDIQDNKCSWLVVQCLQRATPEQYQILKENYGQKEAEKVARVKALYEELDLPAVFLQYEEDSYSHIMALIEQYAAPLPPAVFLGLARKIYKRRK
Experimental: as §1, §2

[4] = system: RPMI-8226 cells; assay: Lambda light chain ELISA (intracellular lambda light chain, marker of Rab GTPase geranylgeranylation disruption); assay type: cell-based, Human; details: 48 h
Experimental: as §3, §4

[5] = 20 nM recombinant GGDPS, 10 μM FPP, 10 μM [14C]-IPP, 37° C. 30 minutes, read-out: GGDPS IC50

Recombinant GGDPS, sequence (O95749 whole entry): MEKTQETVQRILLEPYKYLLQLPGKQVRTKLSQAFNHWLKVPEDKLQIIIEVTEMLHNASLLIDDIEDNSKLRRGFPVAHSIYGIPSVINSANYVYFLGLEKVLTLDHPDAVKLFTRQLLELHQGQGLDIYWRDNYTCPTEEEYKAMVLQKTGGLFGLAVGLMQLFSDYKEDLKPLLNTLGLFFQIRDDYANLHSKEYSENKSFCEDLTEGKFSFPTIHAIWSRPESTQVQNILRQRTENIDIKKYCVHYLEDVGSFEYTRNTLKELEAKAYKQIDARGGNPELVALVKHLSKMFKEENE

SMILES	IC50 [1]	relative GGDPS inhibitory activity in enzymatic assays (comparison in words) [1]	Selectivity for GGDPS to FDPS [1]	Cellular LEC (lowest effective concentration) [2]	IC50 [3]	relative cellular activity (comparison in words) [2]	IC50 [1, 5]	IC50 ([3]; read-out: FDPS IC50)	cellular potency of Z-isomer relative to the E-isomer 21 ([4]; FIG. 5, RPMI-8226 cells)	specificity (selectivity) for GGDPS over FDPS [1]	improvement in cellular activity of POM-version versus corresponding salt 17 ([4]; FIG. 7, RPMI-8226 cells)
CC(C)=CCCC(C)=CCCn1cc(CC(C)(P(=O)([O-])[O-])P(=O)([O-])[O-])nn1.[Na+].[Na+].[Na+].[Na+] [Compound 16, Sodium (1-(1-(4,8-dimethylnona-3,7-dien-1-yl)-1H-1,2,3-triazol-4-yl)propane-2,2-diyl)bis(phosphonate)]	1.27 ± 0.303 µM	very similar to the individual isomers	49	0.1 µM	62.2 ± 7.22 µM						
CC(C)=CCC/C(C)=C\CCn1cc(CC(C)(P(=O)([O-])[O-])P(=O)([O-])[O-])nn1.[Na+].[Na+].[Na+].[Na+] [Compound 17, Sodium (Z)-(1-(1-(4,8-dimethylnona-3,7-dien-1-yl)-1H-1,2,3-triazol-4-yl)propane-2,2-diyl)bis(phosphonate)]	0.92 ± 0.089 µM		>108	0.1 µM	> 100 µM						
CC(C)=CCC/C(C)=C/CCn1cc(CC(C)(P(=O)([O-])[O-])P(=O)([O-])[O-])nn1.[Na+].[Na+].[Na+].[Na+] [Compound 18, Sodium (E)-(1-(1-(4,8-dimethylnona-3,7-dien-1-yl)-1H-1,2,3-triazol-4-yl)propane-2,2-diyl)bis(phosphonate)]	20.5 ± 2.3 µM		3.5	5.0 µM	71.4 ± 24.2 µM	slightly more potent than the Z-isomer					
CC(C)=CCCC(C)=CCn1cc(CC(C)(P(=O)([O-])[O-])P(=O)([O-])[O-])nn1.[Na+].[Na+].[Na+].[Na+] [Compound 19, Sodium (1-(1-(3,7-dimethylocta-2,6-dien-1-yl)-1H-1,2,3-triazol-4-yl)propane-2,2-diyl)bis(phosphonate)]		more potent than its corresponding non-methylated analogue 31	241	0.03 µM			0.1 ± 0.019 µM	24.1 ± 3.15 µM			
CC(C)=CCC/C(C)=C\Cn1cc(CC(C)(P(=O)([O-])[O-])P(=O)([O-])[O-])nn1.[Na+].[Na+].[Na+].[Na+] [Compound 20, Sodium (Z)-(1-(1-(3,7-dimethylocta-2,6-dien-1-yl)-1H-1,2,3-triazol-4-yl)propane-2,2-diyl)bis(phosphonate)]		more potent than the E isomer 21	693	0.025 µM			0.086 ± 0.022 µM	59.6 ± 15 µM	approximately 50 fold		
CC(C)=CCC/C(C)=C/Cn1cc(CC(C)(P(=O)([O-])[O-])P(=O)([O-])[O-])nn1.[Na+].[Na+].[Na+].[Na+] [Compound 21, Sodium (E)-(1-(1-(3,7-dimethylocta-2,6-dien-1-yl)-1H-1,2,3-triazol-4-yl)propane-2,2-diyl)bis(phosphonate)]			345	0.02 µM			0.125 ± 0.027 µM	43.1 ± 2.98 µM		at least 3.5 fold	
CC(C)=CCC/C(C)=C\CCn1cc(CC(C)(P(=O)(OCOC(=O)C(C)(C)C)OCOC(=O)C(C)(C)C)P(=O)(OCOC(=O)C(C)(C)C)OCOC(=O)C(C)(C)C)nn1 [Compound 25, (Z)-(((1-(1-(4,8-dimethylnona-3,7-dien-1-yl)-1H-1,2,3-triazol-4-yl)propane-2,2-diyl)bis(oxo-15-phosphanetriyl))tetrakis(oxy))tetrakis(methylene) tetrakis(2,2-dimethylpropanoate)]											approximately 10 fold
CCC(Cc1cn(C/C=C(\C)CCC=C(C)C)nn1)(P(=O)(O)O)P(=O)(O)O [Compound 28]			16	2.5 µM		less potent than either the parent compound 31	5.85 ± 1.3 µM	94.3 ± 20.6 µM			
